Measured values: patent publication US20070093392A1 (priority 2005, published 2007)

Tested on: gerbils
Conditions: in vivo

COc1cc(CNC(=O)CCCC/C=C/C(C)C)ccc1O [capsaicin]
Rodent repellent effect, overall: very effective rodent repellent
